Values of other authors, collected in article PMC2602858 (Cancer epidemiology, biomarkers & prevention : a …, 2008).

How the values were obtained:
women = conditions: I3C 200 and 400 mg twice daily for 4 weeks
CYP1A2 = conditions: I3C 400 mg twice daily, four weeks
[1] = tested on: urinary 2-hydroxyestrone: 16α-hydroxyestrone ratio; conditions: four weeks
[2] = humans, plasma

- effect on CYP1A2 (CYP1A2): marked induction
Compound: OCc1c[nH]c2ccccc12 [I3C, indole-3-carbinol]
- adverse effects (women): no adverse effects were reported or observed
- change of estrone hydroxylation ratio ([1]; I3C 200 mg twice daily): change in the estrone hydroxylation ratio was obtained
- change of urinary 2-hydroxyestrone: 16α-hydroxyestrone ratio ([1]; I3C 400 mg twice daily): doubling
- circulating products detected after oral I3C [2]: the only detectable circulating product was DIM
